Test results published in patent US7547705B2, “Substituted 8′-pyri(MI)dinyl-dihydrospiro-[cycloalkylamine]-pyrimido[1,2-a]pyrimidin-6-one derivatives” (Sanofi-Aventis, priority 2003, dated 2009).

Target: GSK3β (Homo sapiens, UniProt P49841)
Test: Inhibitory activity against GSK3β (33P-ATP phosphorylation of prephosphorylated GS1 peptide, two protocols)
Type: biochemical
Details: GS1 peptide / 33P-ATP filter assay; which of the two protocols was used is not stated
Method: Inhibitory activity of the medicament of the present invention against GSK3β: Two different protocols can be used. In a first protocol: 7.5 μM of prephosphorylated GS1 peptide and 10 μM ATP (containing 300,000 cpm of 33P-ATP) were incubated in 25 mM Tris-HCl, pH 7.5, 0.6 mM DTT 6 mM MgCl2, 0.6 mM EGTA, 0.05 mg/ml BSA buffer for 1 hour at room temperature in the presence of GSK3beta (total reaction volume: 100 microliters). In a second protocol: 4.1 μM of prephosphorylated GSI peptide and 42 μM ATP (containing 260,000 cpm 33P-ATP) were incubated in 80 mM Mes-NaOH, pH 6.5, 1 mM Mg acetate, 0.5 mM EGTA, 5 mM 2-mercaptoethanol, 0.02% Tween 20,10% glycerol buffer for 2 hours at room temperature in the presence of GSK3beta. Inhibitors were solubilised in DMSO (final solvent concentration in the reaction medium, 1%). The reaction was stopped with 100 microliters of a solution made of 25 g polyphosphoric acid (85% P2O5), 126 ml 85% H3PO4, H2O to 500 ml and then diluted to 1:100 before use. An aliquot of the reaction mixture was then transferred to Whatman P81 cation exchange filters and rinsed with the solution described above. Incorporated 33P radioactivity was determined by liquid scintillation spectrometry. The phosphorylated GS-1 peptide had the following sequence: NH2-[…](P)EDEE-COOH. […]

GSK3β, sequence (P49841 whole entry, species assumed): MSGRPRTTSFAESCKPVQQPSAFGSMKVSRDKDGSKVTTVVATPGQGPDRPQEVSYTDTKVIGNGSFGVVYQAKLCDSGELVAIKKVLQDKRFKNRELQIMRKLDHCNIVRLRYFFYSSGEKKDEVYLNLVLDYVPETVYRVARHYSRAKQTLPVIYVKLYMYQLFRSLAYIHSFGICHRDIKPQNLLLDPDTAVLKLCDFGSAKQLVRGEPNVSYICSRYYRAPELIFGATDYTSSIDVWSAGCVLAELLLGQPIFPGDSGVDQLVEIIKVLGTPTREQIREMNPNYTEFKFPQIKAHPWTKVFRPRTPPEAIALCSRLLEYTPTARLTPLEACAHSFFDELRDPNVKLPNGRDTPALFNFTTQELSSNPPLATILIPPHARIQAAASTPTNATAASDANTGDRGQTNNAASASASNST

SMILES | IC50 [nM]
CN1CCC2(CC1)CCn1c(nc(-c3ccncc3)cc1=O)N2CC(=O)c1ccccc1 [compound No. 4 of table 1, 1-Methyl-1′-(2-oxo-2-phenylethyl)-8′-(pyridin-4-yl)-3′,4′-dihydrospiro[piperidine-4,2′-pyrimido[1,2-a]pyrimidin]-6′(1′H)-one] | 7
CN1CCC2(CCn3c(nc(-c4ccncc4)cc3=O)N2CC(=O)c2ccccc2)C1 (centres unmarked) [compound No. 4 of table 2, 1′-Methyl-1-(2-oxo-2-phenylethyl)-8-(pyridin-4-yl)-3,4-dihydrospiro (pyrimido[1,2-a]pyrimidine-2,3′-pyrrolidin]-6(1H)-one] | 6
